Test results published in publication PMC9848286, “Design, synthesis, and biological investigation of oxadiazolyl, thiadiazolyl, and pyrimidinyl linked antipyrine derivatives as potential non-acidic anti-inflammatory agents” (Journal of Enzyme Inhibition and Medicinal Chemistry, 2023).

How the values were obtained:
COX-1 = biological target: T1, COX-1 (Ovis aries, UniProt P05979); experiment: In vitro COX-1 inhibition, colorimetric screening assay kit; conditions: for HillSlope (best-fit value), COX-1 inhibition / LogIC50 (best-fit value), COX-1 inhibition: supplementary dose-response curve
T1 sequence (P05979 25-600): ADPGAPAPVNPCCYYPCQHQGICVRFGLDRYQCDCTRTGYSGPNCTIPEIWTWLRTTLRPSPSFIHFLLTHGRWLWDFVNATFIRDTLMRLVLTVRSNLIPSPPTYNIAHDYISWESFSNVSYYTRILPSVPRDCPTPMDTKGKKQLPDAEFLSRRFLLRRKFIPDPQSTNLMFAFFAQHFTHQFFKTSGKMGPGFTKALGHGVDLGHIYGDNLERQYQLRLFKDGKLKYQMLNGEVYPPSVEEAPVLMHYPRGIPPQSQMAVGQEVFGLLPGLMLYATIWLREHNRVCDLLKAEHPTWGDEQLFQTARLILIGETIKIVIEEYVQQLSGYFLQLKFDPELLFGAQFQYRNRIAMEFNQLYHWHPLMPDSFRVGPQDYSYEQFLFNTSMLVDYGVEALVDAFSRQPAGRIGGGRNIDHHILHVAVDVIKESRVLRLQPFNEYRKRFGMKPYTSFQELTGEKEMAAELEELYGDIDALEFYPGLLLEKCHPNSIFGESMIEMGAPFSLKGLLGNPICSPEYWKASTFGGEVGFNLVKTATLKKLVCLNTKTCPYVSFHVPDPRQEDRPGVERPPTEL
Experimental: (§1) This assay examined the inhibitory potency of the target structures towardboth COX isoforms via colorimetric screening assay kit (Cayman Chemical, MI, United States) based on the directions provided by the manufacturer. ELISA reader Thermo Scientific Multiskan® EX (Thermo scientific, United States) was used. […] Serial dilutions of CLX, as a reference standard, and tested compounds at concentrations of 1000, 300, 100, 30, 10, 3, 1, and 0.30 nM were used in the assay. IC50 of the tested compounds were determined using three different experiments. The selectivity (SI) of each ompound was measured using the COX-2/COX-1 ratio, which compares the IC50 of COX-2 and COX-1.

COX-2 = biological target: T2, COX-2 (Homo sapiens, UniProt P35354); experiment: In vitro COX-2 inhibition, colorimetric screening assay kit; conditions: for (SI) in vitro COX-2 selectivity index: COX-1 IC50/COX-2 IC50; for HillSlope (best-fit value), COX-2 inhibition / LogIC50 (best-fit value), COX-2 inhibition: supplementary dose-response curve
T2 sequence (P35354 18-604): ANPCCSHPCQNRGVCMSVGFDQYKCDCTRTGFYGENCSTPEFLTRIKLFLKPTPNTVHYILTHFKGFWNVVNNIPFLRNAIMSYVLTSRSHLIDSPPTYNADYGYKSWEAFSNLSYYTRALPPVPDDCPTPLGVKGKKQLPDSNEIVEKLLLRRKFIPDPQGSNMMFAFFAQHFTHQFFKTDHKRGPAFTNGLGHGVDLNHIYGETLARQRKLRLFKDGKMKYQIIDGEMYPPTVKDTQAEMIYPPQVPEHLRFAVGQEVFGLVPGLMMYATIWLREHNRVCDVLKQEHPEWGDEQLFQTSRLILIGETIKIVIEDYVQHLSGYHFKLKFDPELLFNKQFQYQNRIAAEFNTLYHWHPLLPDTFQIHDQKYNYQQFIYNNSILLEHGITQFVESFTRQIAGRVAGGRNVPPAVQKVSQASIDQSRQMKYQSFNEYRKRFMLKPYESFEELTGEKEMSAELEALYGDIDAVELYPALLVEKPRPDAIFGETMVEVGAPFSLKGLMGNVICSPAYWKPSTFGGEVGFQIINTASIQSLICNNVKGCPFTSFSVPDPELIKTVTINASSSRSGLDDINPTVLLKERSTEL
Experimental: as §1

Row | Compound | IC50 (COX-1) | HillSlope (best-fit value), COX-1 inhibition (COX-1) | LogIC50 (best-fit value), COX-1 inhibition (COX-1) | IC50 (COX-2) | (SI) in vitro COX-2 selectivity index (COX-2) | HillSlope (best-fit value), COX-2 inhibition (COX-2) | LogIC50 (best-fit value), COX-2 inhibition (COX-2) | melting point
1 | Cc1ccc(-c2nnc(SCC(=O)Nc3c(C)n(C)n(-c4ccccc4)c3=O)o2)cc1 [4a, N-(1,5-Dimethyl-3-oxo-2-phenyl-2,3-dihydro-1H-pyrazol-4-yl)-2-((5-(p-tolyl)-1,3,4-oxadiazol-2-yl)thio)acetamide] | 178 ± 2.15 nM | -0.3744 | 2.252 Log (nM) | 86.9 ± 2.19 nM | 2.05 | -0.3184 | 1.939 Log (nM) | 234 to 236 °C
2 | Cc1c(NC(=O)CSc2nnc(NC(=O)Nc3ccccc3)s2)c(=O)n(-c2ccccc2)n1C [6a, N-(1,5-Dimethyl-3-oxo-2-phenyl-2,3-dihydro-1H-pyrazol-4-yl)-2-((5–(3-phenylureido)-1,3,4-thiadiazol-2-yl)thio)acetamide] | 132 ± 2.36 nM | -0.3215 | 2.119 Log (nM) | 155 ± 2.07 nM | 0.85 | -0.3826 | 2.190 Log (nM) | 254 to 256 °C
3 | COc1ccc(NC(=O)Nc2nnc(SCC(=O)Nc3c(C)n(C)n(-c4ccccc4)c3=O)s2)cc1 [6c, N-(1,5-Dimethyl-3-oxo-2-phenyl-2,3-dihydro-1H-pyrazol-4-yl)-2-((5–(3-(4-methoxyphenyl)ureido)-1,3,4-thiadiazol-2-yl)thio)acetamide] | 282.1 ± 2.34 nM | -0.2958 | 2.450 Log (nM) | 86.1 ± 2.26 nM | 3.28 | -0.3558 | 1.935 Log (nM) | 250 to 252 °C
4 | Cc1ccc(-c2nc(SCC(=O)Nc3c(C)n(C)n(-c4ccccc4)c3=O)[nH]c(=O)c2C#N)cc1 [8a, 2-((5-Cyano-6-oxo-4-(p-tolyl)-1,6-dihydropyrimidin-2-yl)thio)-N-(1,5-dimethyl-3-oxo-2-phenyl-2,3-dihydro-1H-pyrazol-4-yl)acetamide] | 139 ± 2.31 nM | -0.3685 | 2.142 Log (nM) | 88.6 ± 2.19 nM | 1.57 | -0.3794 | 1.948 Log (nM) | > 300 °C
5 | Cc1c(NC(=O)CSc2nc(-c3ccc(Cl)cc3)c(C#N)c(=O)[nH]2)c(=O)n(-c2ccccc2)n1C [8b, 2-((4–(4-Chlorophenyl)-5-cyano-6-oxo-1,6-dihydropyrimidin-2-yl)thio)-N-(1,5-dimethyl-3-oxo-2-phenyl-2,3-dihydro-1H-pyrazol-4-yl)acetamide] | 209 ± 2.21 nM | -0.3071 | 2.320 Log (nM) | 120 ± 2.06 nM | 1.74 | -0.3650 | 2.079 Log (nM) | 239 to 241 °C
6 | Cc1c(NC(=O)CSc2nc(-c3ccc(Br)cc3)c(C#N)c(=O)[nH]2)c(=O)n(-c2ccccc2)n1C [8c, 2-((4–(4-Bromophenyl)-5-cyano-6-oxo-1,6-dihydropyrimidin-2-yl)thio)-N-(1,5-dimethyl-3-oxo-2-phenyl-2,3-dihydro-1H-pyrazol-4-yl)acetamide] | 164 ± 2.39 nM | -0.2705 | 2.214 Log (nM) | 130 ± 2.1 nM | 1.26 | -0.3953 | 2.113 Log (nM) | 243 to 245 °C

Now those with a lower IC50 (COX-1), led by results:

Row | IC50 (COX-1) | HillSlope (best-fit value), COX-1 inhibition (COX-1) | LogIC50 (best-fit value), COX-1 inhibition (COX-1) | IC50 (COX-2) | (SI) in vitro COX-2 selectivity index (COX-2) | HillSlope (best-fit value), COX-2 inhibition (COX-2) | LogIC50 (best-fit value), COX-2 inhibition (COX-2) | melting point | Compound
7 | 106 ± 2.16 nM | -0.3655 | 2.025 Log (nM) | 169 ± 2.34 nM | 0.63 | -0.3273 | 2.228 Log (nM) | 248 to 250 °C | Cc1c(NC(=O)CSc2nnc(NC(=O)Nc3ccc(Cl)cc3)s2)c(=O)n(-c2ccccc2)n1C [6d, 2-((5–(3-(4-Chlorophenyl)ureido)-1,3,4-thiadiazol-2-yl)thio)-N-(1,5-dimethyl-3-oxo-2-phenyl-2,3-dihydro-1H-pyrazol-4-yl)acetamide]
8 | 91.6 ± 2.15 nM | -0.3099 | 1.962 Log (nM) | 68.7 ± 2.19 nM | 1.33 | -0.3543 | 1.837 Log (nM) | 166 to 168 °C | COc1ccc(-c2nc(SCC(=O)Nc3c(C)n(C)n(-c4ccccc4)c3=O)[nH]c(=O)c2C#N)cc1 [8d, 2-((5-Cyano-4–(4-methoxyphenyl)-6-oxo-1,6-dihydropyrimidin-2-yl)thio)-N-(1,5-dimethyl-3-oxo-2-phenyl-2,3-dihydro-1H-pyrazol-4-yl)acetamide]
9 | 82.3 ± 2.28 nM | -0.3398 | 1.915 Log (nM) | 104 ± 2.25 nM | 0.79 | -0.2866 | 2.016 Log (nM) | 253 to 255 °C | Cc1ccc(NC(=O)Nc2nnc(SCC(=O)Nc3c(C)n(C)n(-c4ccccc4)c3=O)s2)cc1 [6b, N-(1,5-Dimethyl-3-oxo-2-phenyl-2,3-dihydro-1H-pyrazol-4-yl)-2-((5–(3-(p-tolyl)ureido)-1,3,4-thiadiazol-2-yl)thio)acetamide]
10 | 50.8 ± 2.18 nM | -0.3754 | 1.705 Log (nM) | 65.5 ± 2.23 nM | 0.77 | -0.3340 | 1.817 Log (nM) | 214 to 216 °C | Cc1c(NC(=O)CSc2nnc(-c3ccc([N+](=O)[O-])cc3)o2)c(=O)n(-c2ccccc2)n1C [4d, N-(1,5-Dimethyl-3-oxo-2-phenyl-2,3-dihydro-1H-pyrazol-4-yl)-2-((5–(4-nitrophenyl)-1,3,4-oxadiazol-2-yl)thio)acetamide]
